From ChEMBL document CHEMBL3091300, “Truncated and constrained helical analogs of antimicrobial esculentin-2EM” (Bioorg Med Chem Lett, 2013)
In brackets after ≈: the same amount, converted by molar mass. *1 amine or outer side, *2 acyl side, *3 side chain or, on linkers, in order; H or OH if unused. Where a SMILES comes first, the peptide text is derived from it. Bridges are numbered along the chain shown (N, C = ends). [ ]: non-standard residue; d: D form. Nle(6-ylidene) = O=C([C@H](CCCC=[*:3])N[*:1])[*:2]; S5 = C=CCCC[C@](C)(N)C(=O)O

Columns and labels:
Proteus mirabilis = assay: Antibacterial activity against Proteus mirabilis ATCC 25933 assessed as growth inhibition after 24 hrs by broth microdilution method; assay type: functional; settings: ATCC 25933, 24 h
Pseudomonas aeruginosa = assay: Antibacterial activity against Pseudomonas aeruginosa ATCC 27853 assessed as growth inhibition after 24 hrs by broth microdilution method; assay type: functional; settings: ATCC 27853, 24 h
Staphylococcus aureus = assay: Antibacterial activity against Staphylococcus aureus ATCC 6538p assessed as growth inhibition after 24 hrs by broth microdilution method; assay type: functional
Klebsiella pneumoniae = assay: Antibacterial activity against Klebsiella pneumoniae ATCC 10031 assessed as growth inhibition after 24 hrs by broth microdilution method; assay type: functional; settings: ATCC 10031, 24 h
Escherichia coli = assay: Antibacterial activity against Escherichia coli ATCC 25922 assessed as growth inhibition after 24 hrs by broth microdilution method; assay type: functional; settings: ATCC 25922, 24 h
Shigella dysenteriae = assay: Antibacterial activity against Shigella dysenteriae ATCC 9752 assessed as growth inhibition after 24 hrs by broth microdilution method; assay type: functional; settings: ATCC 9752, 24 h
[1] = Drug metabolism assessed as trypsin (unknown origin)-mediated digestion at 0.09 uM after 15 mins by HPLC analysis; assay type: ADME; settings: human, 0.25 h
Salmonella typhimurium = assay: Antibacterial activity against Salmonella typhimurium ATCC 14028 assessed as growth inhibition after 24 hrs by broth microdilution method; assay type: functional, Salmonella enterica subsp. enterica serovar Typhimurium; settings: Salmonella enterica, ATCC 14028, 24 h
[2] = system: Staphylococcus epidermidis; assay: Antibacterial activity against Staphylococcus epidermidis ATCC 12228 assessed as growth inhibition after 24 hrs by broth microdilution method; assay type: functional; settings: ATCC 12228, 24 h
Bacillus spizizenii = assay: Antibacterial activity against Bacillus subtilis ATCC 6633 assessed as growth inhibition after 24 hrs by broth microdilution method; assay type: functional; settings: ATCC 6633, 24 h
[3] = Drug metabolism assessed as trypsin (unknown origin)-mediated digestion by measuring half life at 0.09 uM by HPLC analysis; assay type: ADME; settings: human
[4] = Drug metabolism assessed as trypsin (unknown origin)-mediated digestion by measuring compound remaining at 0.09 uM after 60 mins by HPLC analysis; assay type: ADME; settings: human, read-out: Stability

Row | Molecule | MIC (Proteus mirabilis) [µg/mL] | MIC (Pseudomonas aeruginosa) [µg/mL] | MIC (Staphylococcus aureus) [µg/mL] | MIC (Klebsiella pneumoniae) [µg/mL] | MIC (Escherichia coli) [µg/mL] | MIC (Shigella dysenteriae) [µg/mL] | Drug metabolism [1] | MIC (Salmonella typhimurium) [µg/mL] | MIC [2] [µg/mL] | MIC (Bacillus spizizenii) [µg/mL] | half-life at 0.09 µM [3] [h] | remaining at 1 h, 0.09 µM [4] [%]
1 | Ac-TLKQFAKGVGKWLVK-NH2 | > 200 | > 200 | 100 | > 200 | 200 | > 200 | Active | > 200 | > 200 | 200 |  | 
2 | Ac-GILDTLKQFAKGVGKWLVKGAAQ-NH2 | > 200 | > 200 | 100 | > 200 | > 200 | > 200 | Active | > 200 | > 200 | 50 |  | 
3 | CC(=O)N[C@H](C(=O)N[C@@H](CC(C)C)C(=O)N[C@@H](CCCCN)C(=O)N[C@@H](CCC(N)=O)C(=O)N[C@@H](Cc1ccccc1)C(=O)N[C@@]1(C)CCC/C=C\CCC[C@@H](C(=O)N[C@@H](CCCCN)C(=O)N[C@@H](Cc2c[nH]c3ccccc23)C(=O)N[C@@H](CC(C)C)C(=O)N[C@H](C(=O)N[C@@H](CCCCN)C(N)=O)C(C)C)NC(=O)[C@H](C(C)C)NC(=O)CNC(=O)[C@H](CCCCN)NC1=O)[C@@H](C)O (Ac-TLKQF[S5]KGV[Nle(6-ylidene)]KWLVK-NH2; staple (Z) 6-10) | > 200 | > 200 | 3.13 (≈ 1.69 µM) | > 200 | > 200 | > 200 |  | > 200 | > 200 | 3.13 (≈ 1.69 µM) | 1.2 | > 90
4 | CC(=O)N[C@H](C(=O)N[C@@H](CC(C)C)C(=O)N[C@@H](CCCCN)C(=O)N[C@@H](CCC(N)=O)C(=O)N[C@@H](Cc1ccccc1)C(=O)N[C@@]1(C)CCC/C=C\CCC[C@@H](C(=O)N[C@@H](CCCCN)C(=O)N[C@@H](CC(=O)O)C(=O)N[C@@H](CC(C)C)C(=O)N[C@H](C(=O)N[C@@H](CCCCN)C(N)=O)C(C)C)NC(=O)[C@H](Cc2c[nH]c3ccccc23)NC(=O)CNC(=O)[C@H](CCCCN)NC1=O)[C@@H](C)O (Ac-TLKQF[S5]KGW[Nle(6-ylidene)]KDLVK-NH2; staple (Z) 6-10) | > 200 | 200 (≈ 107 µM) | 6.25 (≈ 3.35 µM) | 50 (≈ 26.8 µM) | 100 (≈ 53.5 µM) | 50 (≈ 26.8 µM) |  | > 200 | > 200 | 6.25 (≈ 3.35 µM) | 0.617 | 75
5 | CC(=O)N[C@H](C(=O)N[C@@H](CC(C)C)C(=O)N[C@@H](CCCCN)C(=O)N[C@@H](CCC(N)=O)C(=O)N[C@@H](Cc1c[nH]c2ccccc12)C(=O)N[C@@]1(C)CCC/C=C\CCC[C@@H](C(=O)N[C@@H](CCCCN)C(=O)N[C@@H](CC(=O)O)C(=O)N[C@@H](CC(C)C)C(=O)N[C@H](C(=O)N[C@@H](CCCCN)C(N)=O)C(C)C)NC(=O)[C@H](C(C)C)NC(=O)CNC(=O)[C@H](CCCCN)NC1=O)[C@@H](C)O (Ac-TLKQW[S5]KGV[Nle(6-ylidene)]KDLVK-NH2; staple (Z) 6-10) | > 200 | > 200 | 6.25 (≈ 3.43 µM) | 50 (≈ 27.5 µM) | 100 (≈ 54.9 µM) | 50 (≈ 27.5 µM) |  | > 200 | 100 (≈ 54.9 µM) | 6.25 (≈ 3.43 µM) | 1.18 | > 90
